Source: US4659734A, “Olinecarboxylic acid derivatives” (Nippon Shinyaku Co., Ltd., priority 1983, dated 1987)
≈ marks a conversion by molar mass, not a printed value. Entries after “also recorded” stand apart in the source; their conditions may differ.

Tests used:
[1] = system: Bacillus subtilis ATCC 6633; test: Minimum growth inhibiting concentration, Japan Chemotherapeutic Society method; format: cell-based; conditions: ATCC6633; Bacillus subtilis ATCC 6633, Gram +; 5% horse blood added agar medium; read-out: Minimum Growth Inhibiting Concn
Method: (§1) The Antibacterial activity of the compounds of Examples 14, 13, 22b, 21 and 15 was determined in accordance with the method of Japan Chemotherapeutic Society (cf. Nippon Kagaku Ryoho Gakkai Shi, volume 29, number 1, pages 76 to 79, 1981) and the results are reported in Table 1, which follows. | *5% Horse blood added agar medium for sensitivity measurement being used.

[2] = system: Streptococcus pneumoniae Type I; test: as above; format: cell-based; conditions: Gram +, 5% horse blood added agar medium, read-out: Minimum Growth Inhibiting Concn
Method: as §1

[3] = system: Streptococcus pyogenes S-23; test: as above; format: cell-based; conditions: S23; Streptococcus pyogenes S-23, Gram +; 5% horse blood added agar medium; read-out: Minimum Growth Inhibiting Concn
Method: as §1

[4] = system: Acinetobacter calcoacelicus 54; test: as above; format: cell-based; conditions: Acinetobacter calcoacelicus 54, Gram -; read-out: Minimum Growth Inhibiting Concn
Method: (§2) The Antibacterial activity of the compounds of Examples 14, 13, 22b, 21 and 15 was determined in accordance with the method of Japan Chemotherapeutic Society (cf. Nippon Kagaku Ryoho Gakkai Shi, volume 29, number 1, pages 76 to 79, 1981) and the results are reported in Table 1, which follows.

[5] = system: Alcaligenes faecalis ATCC 8750; test: as above; format: cell-based; conditions: ATCC8750; Alcaligenes faecalis ATCC 8750, Gram -; read-out: Minimum Growth Inhibiting Concn
Method: as §2

Escherichia coli KC-14 = test: as above; format: cell-based; conditions: KC14; Escherichia coli KC-14, Gram -; read-out: Minimum Growth Inhibiting Concn
Method: as §2

[6] = system: Escherichia coli NIHJ JC-2; test: as above; format: cell-based; conditions: NIHJJC2; Escherichia coli NIHJ JC-2, Gram -; read-out: Minimum Growth Inhibiting Concn
Method: as §2

[7] = system: Klebsiella pneumoniae K-1966; test: as above; format: cell-based; conditions: K1966; Klebsiella pneumoniae K-1966, Gram -; read-out: Minimum Growth Inhibiting Concn
Method: as §2

[8] = system: Listeria monocytogenes RIMD 1205020; test: as above; format: cell-based; conditions: RIMD1205020; Listeria monocytogenes RIMD 1205020, Gram +; read-out: Minimum Growth Inhibiting Concn
Method: as §2

[9] = system: Micrococcus luteus ATCC 9341; test: as above; format: cell-based; conditions: ATCC9341; Micrococcus luteus ATCC 9341, Gram +; read-out: Minimum Growth Inhibiting Concn
Method: as §2

Proteus mirabilis 181 = test: as above; format: cell-based; conditions: Proteus mirabilis 181, Gram -; read-out: Minimum Growth Inhibiting Concn
Method: as §2

Proteus vulgaris DX-19 = test: as above; format: cell-based; conditions: DX19; Proteus vulgaris DX-19, Gram -; read-out: Minimum Growth Inhibiting Concn
Method: as §2

[10] = system: Pseudomonas aeruginosa E-2; test: as above; format: cell-based; conditions: E2; Pseudomonas aeruginosa E-2, Gram -; read-out: Minimum Growth Inhibiting Concn
Method: as §2

[11] = system: Pseudomonas aeruginosa No. 12; test: as above; format: cell-based; conditions: Pseudomonas aeruginosa No. 12, Gram -; read-out: Minimum Growth Inhibiting Concn
Method: as §2

[12] = system: Pseudomonas cepacia ATCC 25416; test: as above; format: cell-based; conditions: Burkholderia cepacia, ATCC25416; Pseudomonas cepacia ATCC 25416, Gram -; read-out: Minimum Growth Inhibiting Concn
Method: as §2

[13] = system: Pseudomonas maltophilia ATCC 13637; test: as above; format: cell-based; conditions: Stenotrophomonas maltophilia, ATCC13637; Pseudomonas maltophilia ATCC 13637, Gram -; read-out: Minimum Growth Inhibiting Concn
Method: as §2

[14] = system: Serracia marcescens IFO 3736; test: as above; format: cell-based; conditions: Serracia marcescens IFO 3736, Gram -; read-out: Minimum Growth Inhibiting Concn
Method: as §2

[15] = system: Staphylococcus aureus 209-PJC; test: as above; format: cell-based; conditions: Gram +, read-out: Minimum Growth Inhibiting Concn
Method: as §2

[16] = system: Staphylococcus aureus Smith; test: as above; format: cell-based; conditions: Gram +, read-out: Minimum Growth Inhibiting Concn
Method: as §2

[17] = Blood serum concentration, disc method; format: in vivo, ddY strain mice
Method: In this experiment, ddY strain mice (male; body weight 30±2 grams) were used. Sixty mg/kg of the compound of Example 22b were given per os. The blood concentration was calculated from calibration curves obtained by the disc method using Escherichia coli NIHJ strain as tested bacteria and diluting the test compound of mice serum.

[18] = Excretion into urine and recovery, disc method; format: in vivo, ddY strain mice; conditions: 60 mg/kg per os; for Amount excreted into Urine: average ± standard error
Method: In the measurement of excretion into urine, ddY strain mice (male; body weights 30±2 grams) were used. Sixty mg/kg of the compound of Example 22b was administered per os and the mice were fed in metabolic cages and their urine was collected.
Therefore, in the quantitative determination, the calibration curve of the compound of Example 21, calculated by the disc method using Escherichia coli NIHJ strain and using the compound dissolved in phosphoric acid buffer (pH 8.0; 1/15M) was used. Table 5 reports the excretion into urine with respect to time, total recovery amount and recovery rate of the compound of Example 22b.

Acute toxicity = conditions: mouse, in vivo; oral, groups of ten ddY male mice; read-out: 50% Lethal Doses (LD50)
Method: Groups of ten ddY strain male mice (body weights: 20±1 grams) of the test compound were orally administered to determine the LD50. There was […] in which many mice died when the dose was 2000 mg/kg or less.

Cc1csc2c(C(=O)O)c(=O)c3cc(F)c(N4CCN(C)CC4)cc3n12 [Example 22b, 7-fluoro-1-methyl-8-(4-methyl-1-piperazinyl)-5-oxo-5H-thiazolo(3,2-a)-quinoline-4-carboxylic acid] gave an MIC [1] of 0.0008 mg/L (≈ 0.00213 µM), an MIC [2] of 0.39 mg/L (≈ 1.04 µM) and an MIC [3] of 0.2 mg/L (≈ 0.533 µM). It also gave an MIC [4] of 0.2 mg/L (≈ 0.533 µM), an MIC [5] of 0.78 mg/L (≈ 2.08 µM) and an MIC (Escherichia coli KC-14) of 0.013 mg/L (≈ 0.0346 µM). The MIC [6] was 0.025 mg/L (≈ 0.0666 µM), the MIC [7] was 0.05 mg/L (≈ 0.133 µM) and the MIC [8] was 0.2 mg/L (≈ 0.533 µM). The MIC [9] was 0.78 mg/L (≈ 2.08 µM), the MIC (Proteus mirabilis 181) was 0.2 mg/L (≈ 0.533 µM) and the MIC (Proteus vulgaris DX-19) was 0.1 mg/L (≈ 0.266 µM). It also gave an MIC [10] of 0.39 mg/L (≈ 1.04 µM), an MIC [11] of 0.78 mg/L (≈ 2.08 µM) and an MIC [12] of 0.2 mg/L (≈ 0.533 µM). The MIC [13] was 0.025 mg/L (≈ 0.0666 µM), the MIC [14] was 0.39 mg/L (≈ 1.04 µM) and the MIC [15] was 0.013 mg/L (≈ 0.0346 µM). The MIC [16] was 0.053 mg/L (≈ 0.141 µM), the concentration at 0.25 h ([17]; mouse, serum, po, 0.25 hours, 60 mg/kg per os, average ± standard error) was 3.4 ± 0.82 µg/mL and the concentration at 0.5 h ([17]; mouse, serum, po, 0.5 hours, 60 mg/kg per os, average ± standard error) was 5.4 ± 0.32 µg/mL. It also gave a concentration at 1 h ([17]; mouse, serum, po, 1 hour, 60 mg/kg per os, average ± standard error) of 4.2 ± 0.7 µg/mL, a concentration at 2 h ([17]; mouse, serum, po, 2 hours, 60 mg/kg per os, average ± standard error) of 3.3 ± 0.37 µg/mL and a concentration at 4 h ([17]; mouse, serum, po, 4 hours, 60 mg/kg per os, average ± standard error) of 2.5 ± 0.23 µg/mL. The “blood concentration (in words)” value ([17]; oral, mice) was “promptly gave high and sustained blood concentrations when administered orally”, the “Amount excreted into Urine” value ([18]; 0-3 hrs) was 268.1 ± 84.4 µg and the “Total Recovery in urine” value ([18]; 0-24 hrs) was 813.9 µg. The “excretion into urine (in words)” value ([18]; mice) was “excreted into urine almost completely; also recorded: excreted into urine promptly and in high concentration which is continued and exhibits high recovery rate”, the “metabolism (in words)” value ([18]; mice) was “metabolized to the compound of Example 21” and the “Amount excreted into Urine” value ([18]; 3-6 hrs) was 108.3 ± 33.1 µg. The “Amount excreted into Urine” value ([18]; 6-24 hrs) was 437.5 ± 21.8 µg and the LD50 (Acute toxicity) was over 2000 mg/kg.
